Results from patent publication US5574033A, “Heterocyclic compound and cardiotonic agent containing the same as effective component” (Zenyaku Kogyo Kabushiki Kaisha, priority 1991, dated 1996).
Where a name gives a salt, the structure may show the parent alone.

Legend:
[1] = Pharmacological Test 2: acute toxicity, tail vein administration, up-and-down method; conditions: mouse, in vivo, iv, tail vein of ddY mice, in physiological saline solution
Protocol: (§1) Nos. of the compounds in the pharmacological tests 1 and 2 correspond to those in Examples referred to hereinafter.
The acute toxicity was determined by administrating the sample compound, which was dissolved by physiological saline solution, in the tail vein of ddY mice (5-weeks-old, having a body weight of 25 to 28 g) and LD50 was obtained by the up-and-down method.

[2] = system: papillary muscles of a right ventricle; assay: Pharmacological Test 1: contraction of isolated right ventricular papillary muscles upon electric stimulation (inotropic effect); parameters: species or system male Hartley guinea pig; conditions: 3×10^-5 M; percentage of increment of contractile force, isoprotelenol (1×10^-8 M) = 100%; 1 Hz stimulation, 30° C.
Protocol: as §1
(§2) A heart was removed from a male Hartley guinea pig (having a body weight of about 400 g or so) and a right atrium and papillary muscles of a right ventricle were separated from the removed heart. These preparations were suspended in 15 ml of Magnus' bath under load of 0.5 g (papillary muscles) or 1.0 g (right atria). Contraction of papillary muscles upon electric stimulation (1 Hz, 5 msec, 1.5×threshold voltage) and spontaneous contraction of the right atria were recorded through a transducer (manufactured by Orientec, T7-8-240) by a polygraph system (manufactured by NIHONKOHDEN, RMP-6008 and WT-685G).
(§3) Krebs-Henseleit solution was used as nutritive liquid bubbled with mixed gases of 95% O2 with 5% CO2 at 30° C. The value of inotropic effect is a percentage of increment of contractile force by samples when that by isoprotelenol (1×10^-8 M) is considered to be 100%. The value of chronotropic effect is a percentage of atrial rate after the injection of samples when the atrial rate before the injection is considered to be 100%.

[3] = system: right atria; assay: Pharmacological Test 1: spontaneous contraction of isolated right atria (chronotropic effect); parameters: species or system male Hartley guinea pig; conditions: Cavia porcellus; 3×10^-5 M; percentage of atrial rate after injection, rate before injection = 100%; 30° C.
Protocol: as §1, §2, §3

Structure (SMILES) | LD50 [1] [mg/kg] | Inotropic Effect [2] [%] | activity at 30 µM [3] [%]
O=C1CNC(C2=CCN(CC(O)c3ccc([N+](=O)[O-])cc3)CC2)=NN1 (stereo not shown) [hydrochloride of compound 60, Hydrochloride of 4,5-dihydro-3-[1-[2-hydroxy-2-(4-nitrophenyl)ethyl]-1,2,5,6-tetrahydropyrid-4-yl]-1,2,4-triazin-6(1H)-one] | 226 | – | –
O=C1CSC(C2=CCN(CC(O)c3cccc([N+](=O)[O-])c3)CC2)=NN1 (stereo not shown) [hydrochloride of compound 30, Hydrochloride of 2-[1-[2-hydroxy-2-(3-nitrophenyl)ethyl]-1,2,5,6-tetrahydropyrid-4-yl]-4H,6H-1,3,4-thiadiazin-5-one] | 160 | – | –
O=C1CSC(C2=CCN(CC(O)c3ccc(F)cc3)CC2)=NN1 (stereo not shown) [hydrochloride of compound 35, Hydrochloride of 2-[1-[2-(4-fluorophenyl)-2-hydroxyethyl]-1,2,5,6-tetrahydropyrid-4-yl]-4H,6H-1,3,4-thiadiazin-5-one] | 226 | – | –
Cc1ccc(C(O)CN2CC=C(C3=NNC(=O)CS3)CC2)c(C)c1 (stereo not shown) [hydrochloride of compound 25, Hydrochloride of 2-[1-[2-hydroxy-2-(2,4-dimethylphenyl)ethyl]-1,2,5,6-tetrahydropyrid-4-yl]-4H,6H-1,3,4-thiadiazin-5-one] | 135 | – | –
O=C1CSC(C2=CCN(CC(O)c3ccc(Cl)cc3)CC2)=NN1 (stereo not shown) [hydrochloride of compound 13, Hydrochloride of 2-[1-[2-(4-chlorophenyl)-2-hydroxyethyl]-1,2,5,6-tetrahydropyrid-4-yl]-4H,6H-1,3,4-thiadiazin-5-one] | 101 | – | –
Cc1cccc(C(O)CN2CC=C(C3=NNC(=O)CS3)CC2)c1 (stereo not shown) [hydrochloride of compound 20, Hydrochloride of 2-[1-[2-hydroxy-2-(3-methylphenyl)ethyl]-1,2,5,6-tetrahydropyrid-4-yl]-4H,6H-1,3,4-thiadiazin-5-one] | 173 | – | –
Cc1ccc(C(O)CN2CC=C(C3=NNC(=O)CS3)CC2)cc1 (stereo not shown) [hydrochloride of compound 21, Hydrochloride of 2-[1-[2-hydroxy-2-(4-methylphenyl)ethyl]-1,2,5,6-tetrahydropyrid-4-yl]-4H,6H-1,3,4-thiadiazin-5-one] | 226 | – | –
O=C1CNC(c2ccncc2)=NN1 [d, 4,5-Dihydro-3-(4-pyridyl)-1,2,4-triazin-6(1H)-one, reference compound] | – | 4.6 | 112
N#Cc1ccc(C(O)CN2CC=C(C3=NNC(=O)SC3)CC2)cc1 (stereo not shown) [Compound 47, 5-[1-[2-(4-Cyanophenyl)-2-hydroxyethyl]-1,2,5,6-tetrahydropyrid-4-yl]-3H,6H-1,3,4-thiadiazin-2-one] | – | 81.4 | 78.2
O=C1CCC(C2=CCN(CC(O)c3ccc(F)cc3)CC2)=NN1 (stereo not shown) [Compound 51, 6-[1-[2-(4-Fluorophenyl)-2-hydroxyethyl]-1,2,5,6-tetrahydropyrid-4-yl]-4,5-dihydropyridazin-3 (2H)-one] | – | 36.8 | 91.4
O=C1NN=C(C2=CCN(CC(O)c3ccccc3)CC2)CS1 (stereo not shown) [Compound 40, 5-[1-(2-Hydroxy-2-phenylethyl)-1,2,5,6-tetrahydropyrid-4-yl]-3H,6H-1,3,4-thiadiazin-2-one] | – | 35.3 | 98.1
Cc1ccc(C(O)CN2CC=C(C3=NNC(=O)CS3)CC2)cc1 (stereo not shown) [Compound 21, 2-[1-[2-Hydroxy-2-(4-methylphenyl)ethyl]-1,2,5,6-tetrahydropyrid-4-yl]-4H,6H-1,3,4-thiadiazin-5-one] | – | 92.6 | 84.5
O=C1NN=C(C2=CCN(CC(O)c3ccc(Cl)cc3)CC2)CS1 (stereo not shown) [Compound 42, 5-[1-[2-(4-Chlorophenyl)-2-hydroxyethyl]-1,2,5,6-tetrahydropyrid-4-yl]-3H,6H-1,3,4-thiadiazin-2-one] | – | 71.0 | 85.9
O=C1CCC(c2ccncc2)=NN1 [c, 4,5-Dihydro-6-(4-pyridyl)-pyridazin-3(2H)-one, reference compound] | – | 7.3 | 110
O=C1CSC(C2=CCN(CC(O)c3cccc(C(F)(F)F)c3)CC2)=NN1 (stereo not shown) [Compound 34, 2-[1-[2-Hydroxy-2-[3-(trifluoromethyl)phenyl]ethyl]-1,2,5,6-tetrahydropyrid-4-yl]-4H,6H-1,3,4-thiadiazin-5-one] | – | 49.9 | 98.1
O=C1NN=C(C2=CCN(CC(O)c3ccc(F)cc3)CC2)CS1 (stereo not shown) [Compound 46, 5-[1-[2-(4-Fluorophenyl)-2-hydroxyethyl]-1,2,5,6-tetrahydropyrid-4-yl]-3H,6H-1,3,4-thiadiazin-2-one] | – | 61.9 | 81.6
N#Cc1ccc(C(O)CN2CC=C(C3=NNC(=O)CN3)CC2)cc1 (stereo not shown) [Compound 64, 3-[1-[2-(4-Cyanophenyl)-2-hydroxyethyl]-1,2,5,6-tetrahydropyrid-4-yl]-4,5-dihydro-1,2,4-triazin-6(1H)-one] | – | 23.8 | 93
O=C1CSC(C2=CCN(CC(O)c3ccc4c(c3)OCO4)CC2)=NN1 (stereo not shown) [Compound 32, 2-[1-[2-Hydroxy-2-[3,4-(methylenedioxy)phenyl]ethyl]-1,2,5,6-tetrahydropyrid-4-yl]-4H,6H-1,3,4-thiadiazin-5-one] | – | 63.9 | 93.1
O=C1CSC(C2=CCN(CC(O)c3cccc(Cl)c3)CC2)=NN1 (stereo not shown) [Compound 12, 2-[1-[2-(3-Chlorophenyl)-2-hydroxyethyl]-1,2,5,6-tetrahydropyrid-4-yl]-4H,6H-1,3,4-thiadiazin-5-one] | – | 51.0 | 93.8
